Values of other authors, collected in US20100137357A1, “COMPOSITIONS AND METHODS FOR HYPERHIDROSIS” (priority 2008, published 2010).

Test system: serous and seromucous glands
Settings: humans, applied locally to the nasal mucosa

CC(C)[N+]1(C)[C@@H]2CC[C@H]1CC(OC(=O)C(CO)c1ccccc1)C2.[Br-] (stereo partly shown) [ipratropium bromide]
secretions from the serous and seromucous glands: inhibits secretions
